The source of these data is US5767126A, “Alzheimer's disease treatment with tacrine metabolites” (priority 1991, dated 1998).

Test [1] concerns the target T1, acetylcholinesterase (Homo sapiens, UniProt P22303). Kind of test: Acetylcholinesterase inhibition, photometric method of Ellman. Format: biochemical. The note with it: pI is a logarithmic measure of capacity to prevent the action of acetylcholinesterase, read-out: Cholinesterase inhibition pI (converted).
Test [2] deals with T1, acetylcholinesterase. Conditions: figure obtained from the study by P. N. Kaul (J. Pharm. Pharmacol. 1962); cited from earlier work.

T1 sequence (P22303 32-614): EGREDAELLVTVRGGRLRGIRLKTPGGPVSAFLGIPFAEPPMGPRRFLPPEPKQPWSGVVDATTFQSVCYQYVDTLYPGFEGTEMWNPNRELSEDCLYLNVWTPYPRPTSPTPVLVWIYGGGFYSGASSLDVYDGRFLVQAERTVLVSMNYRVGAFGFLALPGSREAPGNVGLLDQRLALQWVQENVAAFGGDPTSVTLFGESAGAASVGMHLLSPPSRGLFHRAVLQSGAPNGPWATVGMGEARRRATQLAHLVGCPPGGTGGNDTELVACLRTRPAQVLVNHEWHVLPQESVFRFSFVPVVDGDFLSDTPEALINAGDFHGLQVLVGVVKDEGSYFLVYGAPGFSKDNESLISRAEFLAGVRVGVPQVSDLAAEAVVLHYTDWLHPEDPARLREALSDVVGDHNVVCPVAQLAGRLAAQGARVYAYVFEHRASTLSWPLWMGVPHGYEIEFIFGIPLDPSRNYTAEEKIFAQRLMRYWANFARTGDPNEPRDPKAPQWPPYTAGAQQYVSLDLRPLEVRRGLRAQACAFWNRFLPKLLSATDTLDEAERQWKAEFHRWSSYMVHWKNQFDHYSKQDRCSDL

Consider `Nc1c2ccccc2nc2c(O)cc(O)cc12` [9-amino-2,4-dihydroxyacridine], for which the IC50 on acetylcholinesterase [1] is 0.158 µM. Consider `Nc1c2c(nc3ccccc13)C(O)C(O)C(O)C2O` (stereo not drawn) [9-amino-1,2,3,4-tetrahydroacridin 1,2,3,4-tetraol], for which the IC50 at acetylcholinesterase [1] was 0.158 µM.

With `Nc1c2c(nc3ccccc13)C=CC(O)C2O` (stereo not drawn) [9-amino-1,2-dihydroacridin-1,2-diol], the IC50 on acetylcholinesterase [1] is 0.631 µM. Still for that read-out and setting: to `Nc1c2ccccc2nc2c(O)ccc(O)c12` [9-amino-1,4-dihydroxyacridine] belongs 0.316 µM; to `Nc1c2c(nc3ccccc13)C(=O)CC(O)C2O` (stereo not drawn) [9-amino-1,2-dihydroacridin-1,2-diol 4(3H)-one], 0.501 µM; to `Nc1c2c(nc3ccccc13)C(O)C(O)C(O)C2` (stereo not drawn) [9-amino-1,2,3,4-tetrahydroacridin-2,3,4-triol], 0.126 µM. With `Nc1ccnc2ccccc12` [4-aminoquinoline], the “Cholinesterase inhibition pI” value at acetylcholinesterase [2] is 4.3. Take `Nc1c2c(nc3ccccc13)CCC(O)C2O` (stereo not drawn) [9-amino-1,2,3,4-tetrahydroacridin-1,2-diol]: the IC50 at acetylcholinesterase [1] was 1.26 µM. Take `Nc1c2c(nc3ccccc13)C(O)C(O)CC2` (stereo not drawn) [9-amino-1,2,3,4-tetrahydroacridin-3,4-diol]: on acetylcholinesterase [1], the IC50 is 0.2 µM.
